# Results published in patent US20140120232A1, “ACID TASTE/ACID SMELL-REDUCING AGENT” (T. HASEGAWA CO., LTD., priority 2011, published 2014).
# Assay: Sensory evaluation of Vermont drink containing the agent
# Details: ten panels
# In short: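 Tridecadienal or tridecatrienal isomers added at various concentrations to a Vermont-flavoured drink (apple-cider vinegar, honey, liquid sugar, citric acid, trisodium citrate, 100 mL total). Ten panelists assessed acid taste/acid smell and aldehyde-type off-odour, and the concentration giving the best acid taste/smell quality was selected.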
structure (smiles),measurement,setting,value
"CCCCC/C=C/C/C=C\CCC=O [(Z,E)-4,7-tridecadienal]","A: number of panels, acid taste/acid smell extreme and cause irritation",0.005 ppt,10
same,"B: number of panels, acid taste/acid smell slightly strong and slightly cause irritation",0.005 ppt,0
same,"C: number of panels, acid taste/acid smell slightly unpleasant",0.005 ppt,0
same,Flavor judgment: number of panels who judged acid taste/acid smell quality the highest,0.005 ppt,0
same,"N: number of panels, irritation of acid reduced to give a mild acid taste",0.005 ppt,0
same,"X: number of panels, acid taste reduced but piercing odor characteristic to aldehydes unpleasant",0.005 ppt,0
same,"A: number of panels, acid taste/acid smell extreme and cause irritation",0.02 ppt,10
same,"B: number of panels, acid taste/acid smell slightly strong and slightly cause irritation",0.02 ppt,0
same,"C: number of panels, acid taste/acid smell slightly unpleasant",0.02 ppt,0
same,Flavor judgment: number of panels who judged acid taste/acid smell quality the highest,0.02 ppt,0
same,"N: number of panels, irritation of acid reduced to give a mild acid taste",0.02 ppt,0
same,"X: number of panels, acid taste reduced but piercing odor characteristic to aldehydes unpleasant",0.02 ppt,0
same,"A: number of panels, acid taste/acid smell extreme and cause irritation",0.1 ppt,10
same,"B: number of panels, acid taste/acid smell slightly strong and slightly cause irritation",0.1 ppt,0
same,"C: number of panels, acid taste/acid smell slightly unpleasant",0.1 ppt,0
same,Flavor judgment: number of panels who judged acid taste/acid smell quality the highest,0.1 ppt,0
same,"N: number of panels, irritation of acid reduced to give a mild acid taste",0.1 ppt,0
same,"X: number of panels, acid taste reduced but piercing odor characteristic to aldehydes unpleasant",0.1 ppt,0
same,"A: number of panels, acid taste/acid smell extreme and cause irritation",0.2 ppt,9
same,"B: number of panels, acid taste/acid smell slightly strong and slightly cause irritation",0.2 ppt,1
same,"C: number of panels, acid taste/acid smell slightly unpleasant",0.2 ppt,0
same,Flavor judgment: number of panels who judged acid taste/acid smell quality the highest,0.2 ppt,0
same,"N: number of panels, irritation of acid reduced to give a mild acid taste",0.2 ppt,0
same,"X: number of panels, acid taste reduced but piercing odor characteristic to aldehydes unpleasant",0.2 ppt,0
same,"A: number of panels, acid taste/acid smell extreme and cause irritation",0.5 ppt,5
same,"B: number of panels, acid taste/acid smell slightly strong and slightly cause irritation",0.5 ppt,3
same,"C: number of panels, acid taste/acid smell slightly unpleasant",0.5 ppt,2
same,Flavor judgment: number of panels who judged acid taste/acid smell quality the highest,0.5 ppt,0
same,"N: number of panels, irritation of acid reduced to give a mild acid taste",0.5 ppt,0
same,"X: number of panels, acid taste reduced but piercing odor characteristic to aldehydes unpleasant",0.5 ppt,0
same,"A: number of panels, acid taste/acid smell extreme and cause irritation",1 ppb,0
same,"B: number of panels, acid taste/acid smell slightly strong and slightly cause irritation",1 ppb,0
same,"C: number of panels, acid taste/acid smell slightly unpleasant",1 ppb,2
same,Flavor judgment: number of panels who judged acid taste/acid smell quality the highest,1 ppb,0
same,"N: number of panels, irritation of acid reduced to give a mild acid taste",1 ppb,4
same,"X: number of panels, acid taste reduced but piercing odor characteristic to aldehydes unpleasant",1 ppb,4
same,"A: number of panels, acid taste/acid smell extreme and cause irritation",1 ppt,0
same,"B: number of panels, acid taste/acid smell slightly strong and slightly cause irritation",1 ppt,3
same,"C: number of panels, acid taste/acid smell slightly unpleasant",1 ppt,6
same,Flavor judgment: number of panels who judged acid taste/acid smell quality the highest,1 ppt,0
same,"N: number of panels, irritation of acid reduced to give a mild acid taste",1 ppt,1
same,"X: number of panels, acid taste reduced but piercing odor characteristic to aldehydes unpleasant",1 ppt,0
same,"A: number of panels, acid taste/acid smell extreme and cause irritation",5 ppt,0
same,"B: number of panels, acid taste/acid smell slightly strong and slightly cause irritation",5 ppt,2
same,"C: number of panels, acid taste/acid smell slightly unpleasant",5 ppt,2
same,Flavor judgment: number of panels who judged acid taste/acid smell quality the highest,5 ppt,4
same,"N: number of panels, irritation of acid reduced to give a mild acid taste",5 ppt,6
same,"X: number of panels, acid taste reduced but piercing odor characteristic to aldehydes unpleasant",5 ppt,0
same,"A: number of panels, acid taste/acid smell extreme and cause irritation",10 ppb,0
same,"B: number of panels, acid taste/acid smell slightly strong and slightly cause irritation",10 ppb,0
same,"C: number of panels, acid taste/acid smell slightly unpleasant",10 ppb,2
same,Flavor judgment: number of panels who judged acid taste/acid smell quality the highest,10 ppb,0
same,"N: number of panels, irritation of acid reduced to give a mild acid taste",10 ppb,3
same,"X: number of panels, acid taste reduced but piercing odor characteristic to aldehydes unpleasant",10 ppb,5
same,"A: number of panels, acid taste/acid smell extreme and cause irritation",20 ppt,0
same,"B: number of panels, acid taste/acid smell slightly strong and slightly cause irritation",20 ppt,1
same,"C: number of panels, acid taste/acid smell slightly unpleasant",20 ppt,2
same,Flavor judgment: number of panels who judged acid taste/acid smell quality the highest,20 ppt,3
same,"N: number of panels, irritation of acid reduced to give a mild acid taste",20 ppt,7
same,"X: number of panels, acid taste reduced but piercing odor characteristic to aldehydes unpleasant",20 ppt,0
same,"A: number of panels, acid taste/acid smell extreme and cause irritation",50 ppb,0
same,"B: number of panels, acid taste/acid smell slightly strong and slightly cause irritation",50 ppb,0
same,"C: number of panels, acid taste/acid smell slightly unpleasant",50 ppb,0
same,Flavor judgment: number of panels who judged acid taste/acid smell quality the highest,50 ppb,0
same,"N: number of panels, irritation of acid reduced to give a mild acid taste",50 ppb,2
same,"X: number of panels, acid taste reduced but piercing odor characteristic to aldehydes unpleasant",50 ppb,8
same,"A: number of panels, acid taste/acid smell extreme and cause irritation",100 ppt,0
same,"B: number of panels, acid taste/acid smell slightly strong and slightly cause irritation",100 ppt,0
same,"C: number of panels, acid taste/acid smell slightly unpleasant",100 ppt,2
same,Flavor judgment: number of panels who judged acid taste/acid smell quality the highest,100 ppt,3
same,"N: number of panels, irritation of acid reduced to give a mild acid taste",100 ppt,8
same,"X: number of panels, acid taste reduced but piercing odor characteristic to aldehydes unpleasant",100 ppt,0
same,"A: number of panels, acid taste/acid smell extreme and cause irritation",500 ppt,0
same,"B: number of panels, acid taste/acid smell slightly strong and slightly cause irritation",500 ppt,1
same,"C: number of panels, acid taste/acid smell slightly unpleasant",500 ppt,3
same,Flavor judgment: number of panels who judged acid taste/acid smell quality the highest,500 ppt,0
same,"N: number of panels, irritation of acid reduced to give a mild acid taste",500 ppt,4
same,"X: number of panels, acid taste reduced but piercing odor characteristic to aldehydes unpleasant",500 ppt,2
